Values of other authors as cited in patent publication US12239727B2, “Compositions for use in the treatment of photosensitivity” (RepoCeuticals A/S, priority 2018, dated 2025).

Settings: room temperature, solvent DMSO

- solubility in DMSO: ≥ 232 mg/mL
SMILES: COc1ccc2[nH]cc(CCNC(C)=O)c2c1 [melatonin, N-acetyl-5-methoxytryptamine]
